Reference: patent US9232796B2, “Herbicidal compositions comprising 4-amino-3-chloro-5-fluoro-6-(4-chloro-2-fluoro-3-methoxyphenyl) pyridine-2-carboxylic acid or a derivative thereof and acetyl-CoA carboxylase (ACCase) inhibitors” (DOW AGROSCIENCES LLC, priority 2012, dated 2016)

What was measured:
KCHSC = experiment: Example IV postemergence foliar-applied, greenhouse, cereal crops weeds; assay type: in vivo, Kochia scoparia (L.) Schrad.
Method: (§1) Seeds of the desired test plant species were planted in Sun Gro MetroMix® 306 planting mixture, which typically has a pH of 6.0 to 6.8 and an organic matter content of about 30 percent, in plastic pots with a surface area of 103.2 square centimeters (cm^2). […] The plants were grown for 7-36 days in a greenhouse with an approximate 14 hour photoperiod which was maintained at about 18° C. during the day and about 17° C. during the night. Nutrients and water were added on a regular basis and supplemental lighting was provided with overhead metal halide 1000-Watt lamps as necessary. The plants were employed for testing when they reached the second or third true leaf stage.
(§2) Treatments consisted of the benzyl ester of 4-amino-3-chloro-5-fluoro-6-(4-chloro-2-fluoro-3-methoxy-phenyl)pyridine-2-carboxylic acid (Compound A), formulated as an SC, a second cereal herbicide alone and then both in combination.
(§3) Other herbicidal components were applied on an active ingredient basis and included acetyl-CoA carboxylase (ACCase)-inhibiting herbicides clodinafop-propargyl, fenoxaprop-P-ethyl, pinoxaden and tralkoxydim.
(§4) Measured aliquots of benzyl ester of 4-amino-3-chloro-5-fluoro-6-(4-chloro-2-fluoro-3-methoxy-phenyl)pyridine-2-carboxylic acid (Compound A) were placed in 25 milliliter (mL) glass vials and diluted in a volume of 1.25% (v/v) Agri-Dex® crop oil concentrate to obtain stock solutions. Compound requirements are based upon a 12 mL application volume at a rate of 187 liters per hectare (L/ha). […] Formulated compounds were applied to the plant material with an overhead Mandel track sprayer equipped with an 8002E nozzle calibrated to deliver 187 L/ha over an application area of 0.503 square meters (m^2) at a spray height of 18 inches (46 cm) above average plant canopy. Control plants were sprayed in the same manner with the solvent blank.
(§5) The treated plants and control plants were placed in a greenhouse as described above and watered by sub-irrigation to prevent wash-off of the test compounds. After 20-22 days, the condition of the test plants as compared with that of the control plants was determined visually and scored on a scale of 0 to 100 percent where 0 corresponds to no injury and 100 corresponds to complete kill.
(§6) Colby's equation was used to determine the herbicidal effects expected from the mixtures (Colby, S. R. 1967. Calculation of the synergistic and antagonistic response of herbicide combinations. Weeds 15:20-22.).
(§7) The following equation was used to calculate the expected activity of mixtures containing two active ingredients, A and B: Expected=A+B−(A×B/100)

CYPIR = experiment: Example I postemergence foliar-applied, greenhouse, direct seeded rice weeds; assay type: in vivo, Cyperus iria L.
Excerpt: Seeds or nutlets of the desired test plant species were planted in a soil matrix prepared by mixing a loam or sandy loam soil (e.g., 28.6 percent silt, 18.8 percent clay, and 52.6 percent sand, with a pH of about 5.8 and an organic matter content of about 1.8 percent) and calcareous grit in an 80 to 20 ratio. The soil matrix was contained in plastic pots with a volume of 1 quart and a surface area of 83.6 square centimeters (cm^2). When required to ensure good germination and healthy plants, a fungicide treatment and/or other chemical or physical treatment was applied. The plants were grown for 8-22 days in a greenhouse with an approximate 14 hr. photoperiod which was maintained at about 29° C. during the day and 26° C. during the night. Nutrients (Peters Excel® 15-5-15 5-Ca 2-Mg and iron chelate) were applied in the irrigation solution as needed and water was added on a regular basis. Supplemental lighting was provided with overhead metal halide 1000-Watt lamps as necessary. The plants were employed for testing when they reached the first through fourth true leaf stage.
Treatments consisted of the acid or esters of 4-amino-3-chloro-5-fluoro-6-(4-chloro-2-fluoro-3-methoxy-phenyl)pyridine-2-carboxylic acid (Compound A), each formulated as an SC (suspension concentrate), and various herbicidal components alone and in combination.
Other herbicidal components were applied on an acid equivalent (ae) or active ingredient (ai) basis and included acetyl coA carboxylase (ACCase)-inhibiting herbicides (cyclohexanedione and aryloxyphenoxypropionate chemical classes) cyhalofop-butyl formulated as Clincher® SF (285 gr ai/L EC), diclofop-methyl formulated as Hoelon® 3EC, fenoxaprop-p-ethyl+isoxadifen-ethyl formulated as RiceStar® HT (0.58 lb./gal EC), fenoxaprop-p-ethyl+mefenpyr diethyl formulated as Puma® IEC, metamifop formulated as Metamifop EC, haloxyfop-methyl formulated as Gallant Super®, fluazifop-p-butyl formulated as Fusilade® DX, quizalofop-p-ethyl formulated as Assure® II, profoxydim formulated as Aura® 20EC, clethodim applied as Intensity®, sethoxydim formulated as Poast®, and tralkoxydim formulated as Achieve®.
Treatment requirements were calculated based upon the rates being tested, the concentration of active ingredient or acid equivalent in the formulation, and a 12 mL application volume at a rate of 187 L/ha.
For treatments comprised of formulated compounds, measured amounts of compounds were placed individually in 25 mL glass vials and diluted in a volume of 1.25% (v/v) Agri-Dex® crop oil concentrated to obtain 12× stock solutions. […] Application solutions were prepared by adding an appropriate amount of each stock solution (e.g., 1 mL) and diluted to the appropriate final concentrations with the addition of 10 mL of an aqueous mixture of 1.25% (v/v) crop oil concentrate so that the final spray solutions contained 1.25+/−0.05% (v/v) crop oil concentrate.
All stock solutions and applications solutions were visually inspected for compound compatibility prior to application. Spray solutions were applied to the plant material with an overhead Mandel track sprayer equipped with a 8002E nozzles calibrated to deliver 187 L/ha over an application area of 0.503 m^2 at a spray height of 18 to 20 inches (46 to 50 cm) above average plant canopy height. Control plants were sprayed in the same manner with the solvent blank.
as §5, with “After approximately 3 weeks,” for “After 20-22 days,”, “the untreated” for “the control”, “injury or growth inhibition” for “injury”, “kill. […]” for “kill.”

LOLMU = experiment: Example IV postemergence foliar-applied, greenhouse, cereal crops weeds; assay type: in vivo, Lolium multiflorum Lam.
Method: (§8) Seeds of the desired test plant species were planted in Sun Gro MetroMix® 306 planting mixture, which typically has a pH of 6.0 to 6.8 and an organic matter content of about 30 percent, in plastic pots with a surface area of 103.2 square centimeters (cm^2). When required to ensure good germination and healthy plants, a fungicide treatment and/or other chemical or physical treatment was applied. The plants were grown for 7-36 days in a greenhouse with an approximate 14 hour photoperiod which was maintained at about 18° C. during the day and about 17° C. during the night. Nutrients and water were added on a regular basis and supplemental lighting was provided with overhead metal halide 1000-Watt lamps as necessary. The plants were employed for testing when they reached the second or third true leaf stage.
as §2, §3
(§9) Measured aliquots of benzyl ester of 4-amino-3-chloro-5-fluoro-6-(4-chloro-2-fluoro-3-methoxy-phenyl)pyridine-2-carboxylic acid (Compound A) were placed in 25 milliliter (mL) glass vials and diluted in a volume of 1.25% (v/v) Agri-Dex® crop oil concentrate to obtain stock solutions. Compound requirements are based upon a 12 mL application volume at a rate of 187 liters per hectare (L/ha). Spray solutions of the second cereal herbicide and experimental compound mixtures were prepared by adding the stock solutions to the appropriate amount of dilution solution to form 12 mL spray solution with active ingredients in two- and three-way combinations. Formulated compounds were applied to the plant material with an overhead Mandel track sprayer equipped with an 8002E nozzle calibrated to deliver 187 L/ha over an application area of 0.503 square meters (m^2) at a spray height of 18 inches (46 cm) above average plant canopy. Control plants were sprayed in the same manner with the solvent blank.
as §5, §6, §7

AVEFA = experiment: as above; assay type: in vivo, Avena fatua L.
Method: as §8, §2, §3, §9
as §5, with “kill. […]” for “kill.”

ALOMY = experiment: as above; assay type: in vivo, Alopecurus myosuroides Huds.
Method: as §8, §2, §3, §9
as §5, with “kill. […]” for “kill.”

APESV = experiment: as above; assay type: in vivo, Apera spica-venti (L.) Beauv.
Method: as §1, §2, §3, §4, §5, §6, §7

PHAMI = experiment: as above; assay type: in vivo, Phalaris minor Retz.
Method: as §1, §2, §3, §4, §5, §6, §7

| Structure (SMILES) | Visual Weed Control (%) - 21 DAA KCHSC Obs (KCHSC; Tralkoxydim 50 gai/ha) [%] | Visual Weed Control (%) - 21 DAA KCHSC Obs (KCHSC; Tralkoxydim 100 gai/ha) [%] | Visual Weed Control (%) - 22 DAA CYPIR Obs (CYPIR; 100 gai/ha) [%] | Visual Weed Control (%) - 22 DAA CYPIR Obs (CYPIR; 200 gai/ha) [%] | Visual Weed Control (%) - 21 DAA LOLMU Obs (LOLMU; Tralkoxydim 50 gai/ha) [%] | Visual Weed Control (%) - 21 DAA LOLMU Obs (LOLMU; Tralkoxydim 100 gai/ha) [%] | Visual Weed Control (%) - 21 DAA AVEFA Obs (AVEFA; Tralkoxydim 50 gai/ha) [%] | Visual Weed Control (%) - 21 DAA AVEFA Obs (AVEFA; Tralkoxydim 100 gai/ha) [%] | Visual Weed Control (%) - 21 DAA ALOMY Obs (ALOMY; Clodinafop-propargyl 15 gai/ha) [%] | Visual Weed Control (%) - 21 DAA ALOMY Obs (ALOMY; Clodinafop-propargyl 30 gai/ha) [%] | Visual Weed Control (%) - 21 DAA KCHSC Obs (KCHSC; Clodinafop-propargyl 15 gai/ha) [%] | Visual Weed Control (%) - 21 DAA KCHSC Obs (KCHSC; Clodinafop-propargyl 30 gai/ha) [%] | Visual Weed Control (%) - 21 DAA APESV Obs (APESV; Clodinafop-propargyl 15 gai/ha) [%] | Visual Weed Control (%) - 21 DAA APESV Obs (APESV; Clodinafop-propargyl 30 gai/ha) [%] | Visual Weed Control (%) - 21 DAA LOLMU Obs (LOLMU; Clodinafop-propargyl 15 gai/ha) [%] | Visual Weed Control (%) - 21 DAA LOLMU Obs (LOLMU; Clodinafop-propargyl 30 gai/ha) [%] | Visual Weed Control (%) - 21 DAA PHAMI Obs (PHAMI; Clodinafop-propargyl 15 gai/ha) [%] | Visual Weed Control (%) - 21 DAA PHAMI Obs (PHAMI; Clodinafop-propargyl 30 gai/ha) [%] |
| --- | --- | --- | --- | --- | --- | --- | --- | --- | --- | --- | --- | --- | --- | --- | --- | --- | --- | --- |
| CCO/N=C(/CC)C1=C(O)CC(c2c(C)cc(C)cc2C)CC1=O (stereo not drawn) [Tralkoxydim, 2-[1-(ethoxyimino)propyl]-3-hydroxy-5-(2,4,6-trimethylphenyl)-2-cyclohexen-1-one] | 10 | 0 | 0 | 0 | 86 | 96 | 78 | 99 | – | – | – | – | – | – | – | – | – | – |
| C#CCOC(=O)[C@@H](C)Oc1ccc(Oc2ncc(Cl)cc2F)cc1 [Clodinafop-propargyl, 2-propynyl(2R)-2-[4-[(5-chloro-3-fluoro-2-pyridinyl)oxy]phenoxy]propanoate] | – | – | – | – | – | – | – | – | 80 | 82 | 0 | 10 | 15 | 68 | 60 | 48 | 48 | 55 |
